Source: patent publication US20090306454A1, “Devices and Methods for Stimulation of Tissue” (Stanford University, priority 2005, published 2009)

Legend:
[1] = test system: denervated orbicularis oculi; assay: Ach stimulation in the denervated rabbit model (Miochol-E injected into orbicularis oculi pocket); assay type: in vivo; design: key to eyelid response to Ach delivered: N = no response; C = complete eyelid closure
From the text: a) Two white New Zealand female rabbits were anesthetized by using 3-5% isofluorane inhalation and ketamine/xylazine and monitored by Heska monitor (SP02, heart rate, and rectal temperature). b) A pre-auricular incision was made the facial nerve was surgically sectioned and a five millimeter section was eliminated.
To determine the response of denervated orbicularis oculi in rabbits to stimulation with varying dosages of Miochol-E (acetylcholine chloride, injectable, Novartis pharmaceuticals) the FDA approved Miochol-E in 10 mg/ml, or 0.055M Ach (molar mass of 182 g/mol) was used to test the effects in the denervated rabbit model.
Methods: The rabbit was sedated in standard fashion, an eyelid incision was made 5 mm from the lash line and the Miochol E was injected into the orbicularis oculi pocket. Retesting was done at six weeks.

[2] = test system: right denervated orbicularis oculi; assay: Synergistic action of electric stimulation and Ach on denervated orbicularis oculi; assay type: in vivo, rabbit
From the text: A possible synergistic interaction between Ach and electric stimulation were observed as follows. After having injected an amount of Ach into the right denervated orbicularis oculi that produced no reaction, electric stimulation was delivered to the muscle at an intensity previously unable to produce a definitive blink.
In a subsequent test session, the right denervated orbicularis was first tested using electrical stimulation alone (prior to any Ach testing) as shown in Table III.
After the delivery of 200 ul of Ach to the right denervated orbicularis oculi, the right orbicularis oculi was allowed to relax to baseline position prior to Ach stimulation. No saline flush was performed. Electric stimulation was given at 10 msec phase duration at 3 volts.

[3] = Chemical stability of Ach at body temperature (37 C, HPLC with UV detection); assay type: physicochemical
From the text: To determine the stability of acetylcholine at 37 C to help guide the reservoir sizes and locations, aliquots of reference acetylcholine and standard strength Miochol-E (acetylcholine, injectable, Novartis Pharmaceuticals) were stored in sterile glass containers at 37 C.

[4] = Full Strength Ach (10 mg/ml), 200 μl, denervated rabbit orbicularis oculi

CC(=O)OCC[N+](C)(C)C.[Cl-] [Ach, acetylcholine chloride]
muscle contraction / eyelid closure (conclusion from experiments) ([1]; Ach delivered to the orbicularis in a diffuse fashion, at certain concentrations and volumes): tonic, prolonged closure | eyelid response to Ach delivered ([1]; Ach dilution 1:1, 0.5 μl, denervated rabbit orbicularis oculi): N | eyelid response to Ach delivered ([1]; Ach dilution 1:1, 1 μl, denervated rabbit orbicularis oculi): N | eyelid response to Ach delivered ([1]; Ach dilution 1:1, 5 μl, denervated rabbit orbicularis oculi): N | eyelid response to Ach delivered ([1]; Ach dilution 1:1, 10 μl, denervated rabbit orbicularis oculi): N | eyelid response to Ach delivered ([1]; Ach dilution 1:1, 25 μl, denervated rabbit orbicularis oculi): N | eyelid response to Ach delivered ([1]; Ach dilution 1:1, 50 μl, denervated rabbit orbicularis oculi): N | eyelid response to Ach delivered ([1]; Ach dilution 1:1, 100 μl, denervated rabbit orbicularis oculi): N | eyelid response to Ach delivered ([1]; Ach dilution 1:2, 0.5 μl, denervated rabbit orbicularis oculi): N | eyelid response to Ach delivered ([1]; Ach dilution 1:2, 1 μl, denervated rabbit orbicularis oculi): N | eyelid response to Ach delivered ([1]; Ach dilution 1:2, 5 μl, denervated rabbit orbicularis oculi): N | eyelid response to Ach delivered ([1]; Ach dilution 1:2, 10 μl, denervated rabbit orbicularis oculi): N | eyelid response to Ach delivered ([1]; Ach dilution 1:2, 25 μl, denervated rabbit orbicularis oculi): N | eyelid response to Ach delivered ([1]; Ach dilution 1:2, 50 μl, denervated rabbit orbicularis oculi): N | eyelid response to Ach delivered ([1]; Ach dilution 1:2, 100 μl, denervated rabbit orbicularis oculi): N | eyelid response to Ach delivered ([1]; Ach dilution 1:5, 0.5 μl, denervated rabbit orbicularis oculi): N | eyelid response to Ach delivered ([1]; Ach dilution 1:5, 1 μl, denervated rabbit orbicularis oculi): N | eyelid response to Ach delivered ([1]; Ach dilution 1:5, 5 μl, denervated rabbit orbicularis oculi): N | eyelid response to Ach delivered ([1]; Ach dilution 1:5, 10 μl, denervated rabbit orbicularis oculi): N | eyelid response to Ach delivered ([1]; Ach dilution 1:5, 25 μl, denervated rabbit orbicularis oculi): N | eyelid response to Ach delivered ([1]; Ach dilution 1:5, 50 μl, denervated rabbit orbicularis oculi): N | eyelid response to Ach delivered ([1]; Ach dilution 1:5, 100 μl, denervated rabbit orbicularis oculi): N | eyelid response to Ach delivered ([1]; Ach dilution 1:10, 0.5 μl, denervated rabbit orbicularis oculi): N | eyelid response to Ach delivered ([1]; Ach dilution 1:10, 1 μl, denervated rabbit orbicularis oculi): N | eyelid response to Ach delivered ([1]; Ach dilution 1:10, 5 μl, denervated rabbit orbicularis oculi): N | eyelid response to Ach delivered ([1]; Ach dilution 1:10, 10 μl, denervated rabbit orbicularis oculi): N | eyelid response to Ach delivered ([1]; Ach dilution 1:10, 25 μl, denervated rabbit orbicularis oculi): N | eyelid response to Ach delivered ([1]; Ach dilution 1:10, 50 μl, denervated rabbit orbicularis oculi): N | eyelid response to Ach delivered ([1]; Ach dilution 1:10, 100 μl, denervated rabbit orbicularis oculi): N | eyelid response to Ach delivered ([1]; Full Strength Ach (10 mg/ml), 0.5 μl, denervated rabbit orbicularis oculi): N | eyelid response to Ach delivered ([1]; Full Strength Ach (10 mg/ml), 1 μl, denervated rabbit orbicularis oculi): N | eyelid response to Ach delivered ([1]; Full Strength Ach (10 mg/ml), 5 μl, denervated rabbit orbicularis oculi): N | eyelid response to Ach delivered ([1]; Full Strength Ach (10 mg/ml), 10 μl, denervated rabbit orbicularis oculi): N | eyelid response to Ach delivered ([1]; Full Strength Ach (10 mg/ml), 25 μl, denervated rabbit orbicularis oculi): N | eyelid response to Ach delivered ([1]; Full Strength Ach (10 mg/ml), 50 μl, denervated rabbit orbicularis oculi): N | eyelid response to Ach delivered ([1]; Full Strength Ach (10 mg/ml), 100 μl, denervated rabbit orbicularis oculi): N | duration of complete eyelid closure [1, 4]: 1 min | eyelid response to Ach delivered [1, 4]: C | eyelid response to electric stimulation after Ach delivery ([2]; after 200 ul of Ach, muscle relaxed to baseline, no saline flush, electric stimulation 10 msec phase duration at 3 volts): Reproducible complete closure blinks | eyelid reaction to injected Ach alone ([2]; an amount of Ach injected into the right denervated orbicularis oculi, before electric stimulation): no reaction | eyelid response to electric stimulation after Ach injection ([2]; electric stimulation at an intensity previously unable to produce a definitive blink, after Ach amount that produced no reaction, over three stimulated partial blink motions): closed tightly for four minutes | stability at body temperature ([3]; 14 days in sterile glass at 37 C): stable | Peak Area (Ach concentration by HPLC-UV) ([3]; after storage at 37 C for 14 days in sterile glass): 56494
